Reference: patent US12404270B2, “Quinazoline derivatives as LPA receptor 2 inhibitors” (CHIESI FARMACEUTICI S.P.A., priority 2019, dated 2025)

Biological target: T1, human recombinant LPA2 expressed in CHO cells (Homo sapiens, UniProt Q9HBW0)
T1 construct: expressed in transfected cells; host or cells: CHO (CHO-hLPA2 cell line)
Assay: FLIPR calcium mobilization assay, LPA2 antagonism in CHO-hLPA2 cells
Type: cell-based
Settings: CHO-hLPA2 cells, inhibition of LPA EC80 Ca2+ response, 30 min pre-incubation; read-out: LPA2 IC50
Method: The effectiveness of compounds of the present invention as LPA2 antagonist can be determined at the human recombinant LPA2 expressed in CHO cells, using a FLIPR assay in 384 well format.
CHO-hLPA2 cell lines are cultured in a humidified incubator at 5% CO2 in DMEM/F-12 (1:1) MIXTURE with 2 mM Glutamax, supplemented with 10% of Foetal Bovine Serum, 1 mM Sodium Pyruvate, 11 mM Hepes and 1× Penicillin/Streptomycin. CHO hLPA2 cells are seeded into black walled clear-bottom 384-well plates (#781091, Greiner Bio-One GmbH) at a density of 7,500 cells per well in 50 μl culture media and grown overnight in a 37° C. humidified CO2-incubator. Serial dilutions (1:3 or 1:4, 11 points CRC) of compounds are performed in 100% DMSO at 200× the final concentration. The compounds are diluted 1:50 prior to the experiment with Assay Buffer (20 mM HEPES, 145 mM NaCl, 5 mM KCl, 5.5 mM glucose, 1 mM MgCl2 and 2 mM CaCl2, pH 7.4 containing 0.01% Pluronic F-127) to obtain a solution corresponding to […] the final concentration in the assay (4×, 2% DMSO). The final concentration of DMSO in the assay will be 0.5% in each well. Medium is removed by aspiration and cells are then incubated with 30 μl of a loading solution containing 5 μM of the cytoplasmic Ca2+ indicator Cal-520 AM in Assay Buffer containing 2.5 mM probenecid for 30 min at 37° C. incubator (cell loading). The loaded cell plates are transferred into the FLIPR instrument and calcium responses are monitored during the on-line addition protocols. For testing of compounds, after the cell loading, 10 μl/well of 4× antagonists' solution was added onto the cells. […] Intracellular peak fluorescence values subtracted by baseline fluorescence are exported and analysed to determine IC50 values, respectively. The calcium response is expressed as percentage of the maximal inhibition of the EC80 agonist response.
The raw data (peak height expressed as relative fluorescence units) are normalized and transformed into “percent of inhibition”. Curve fitting and pIC50 (−Log IC50) estimations are carried out using a four-parameter logistic model using XLfit Software.

T1 sequence (Q9HBW0 whole entry): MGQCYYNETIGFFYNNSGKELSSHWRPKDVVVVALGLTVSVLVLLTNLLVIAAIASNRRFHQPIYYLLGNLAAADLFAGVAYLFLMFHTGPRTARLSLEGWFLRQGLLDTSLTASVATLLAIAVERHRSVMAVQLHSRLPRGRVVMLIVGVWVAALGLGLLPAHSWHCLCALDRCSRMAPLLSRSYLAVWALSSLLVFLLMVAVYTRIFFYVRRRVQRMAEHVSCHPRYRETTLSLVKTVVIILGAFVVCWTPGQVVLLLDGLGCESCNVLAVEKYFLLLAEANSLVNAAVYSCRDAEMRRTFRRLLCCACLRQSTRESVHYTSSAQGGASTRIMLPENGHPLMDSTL

| IC50 [nM] | Compound |
| --- | --- |
| < 10 | Cc1noc(-c2ccc(S(=O)(=O)N3CCN(C[C@H](C)Nc4ncnc5c(C(=O)N6CCC[C@H]6C(F)(F)F)cccc45)CC3)s2)c1C (racemic) [Example 69, N-[(2S)-1-(4-{[5-(3,4-dimethyl-1,2-oxazol-5-yl)thiophen-2-yl]sulfonyl}piperazin-1-yl)propan-2-yl]-8-[(2S)-2-(trifluoromethyl)pyrrolidine-1-carbonyl]quinazolin-4-amine] |
| < 10 | Cc1noc(-c2ccc(S(=O)(=O)N3CCN(C[C@H](C)Nc4ncnc5c(C(=O)N6CCC[C@@H]6C(F)(F)F)cccc45)CC3)s2)c1C (racemic) [Example 76, N-[(2S)-1-(4-{[5-(3,4-dimethyl-1,2-oxazol-5-yl)thiophen-2-yl]sulfonyl}piperazin-1-yl)propan-2-yl]-8-[(2R)-2-(trifluoromethyl)pyrrolidine-1-carbonyl]quinazolin-4-amine] |
| 10 to 100 | COC(=O)Nc1nc(C)c(S(=O)(=O)N2CCN(C[C@H](C)Nc3ncnc4c(C(=O)N5CCC[C@@H]5C(F)(F)F)cccc34)CC2)s1 (racemic) [Example 79, methyl N-[4-methyl-5-({4-[(2S)-2-({8-[(2R)-2-(trifluoromethyl)pyrrolidine-1-carbonyl]quinazolin-4-yl}amino)propyl]piperazin-1-yl}sulfonyl)-1,3-thiazol-2-yl]carbamate] |
| 10 to 100 | COC(=O)Nc1nc(C)c(S(=O)(=O)N2CCN(C[C@H](C)Nc3ncnc4c(C(=O)N5CCC[C@@H]5C)cccc34)CC2)s1 (racemic) [Example 82, methyl N-[4-methyl-5-({4-[(2S)-2-({8-[(2S)-2-methylpyrrolidine-1-carbonyl]quinazolin-4-yl}amino)propyl]piperazin-1-yl}sulfonyl)-1,3-thiazol-2-yl]carbamate] |
| < 1000 | COC(=O)Nc1nc(C)c(S(=O)(=O)N2CCN(C[C@H](C)Nc3ncnc4c(C(=O)N5CCC[C@H]5C(F)(F)F)cccc34)CC2)s1 (racemic) [Example 84, methyl N-[4-methyl-5-({4-[(2S)-2-({8-[(2S)-2-(trifluoromethyl)pyrrolidine-1-carbonyl]quinazolin-4-yl}amino)propyl]piperazin-1-yl}sulfonyl)-1,3-thiazol-2-yl]carbamate] |
| < 10 | Cc1noc(-c2ccc(S(=O)(=O)N3CCN(C[C@H](C)Nc4ncnc5c(C(=O)N6CC7CC7C6)cccc45)CC3)s2)c1C (mixture of isomers) [Example 85, 8-{3-azabicyclo[3.1.0]hexane-3-carbonyl}-N-[(2S)-1-(4-{[5-(3,4-dimethyl-1,2-oxazol-5-yl)thiophen-2-yl]sulfonyl}piperazin-1-yl)propan-2-yl]quinazolin-4-amine] |
| < 10 | Cc1noc(-c2ccc(S(=O)(=O)N3CCN(C[C@H](C)Nc4ncnc5c(C(=O)N6CCC[C@@H]6C)cccc45)CC3)s2)c1C (racemic) [Example 86, N-[(2S)-1-(4-{[5-(3,4-dimethyl-1,2-oxazol-5-yl)thiophen-2-yl]sulfonyl}piperazin-1-yl)propan-2-yl]-8-[(2S)-2-methylpyrrolidine-1-carbonyl]quinazolin-4-amine] |
| 10 to 100 | COC(=O)Nc1nc(C)c(S(=O)(=O)N2CCN(C[C@H](C)Nc3ncnc4c(C(=O)N5CC6CC6C5)cccc34)CC2)s1 (mixture of isomers) [Example 87, methyl N-[5-({4-[(2S)-2-[(8-{3-azabicyclo[3.1.0]hexane-3-carbonyl}quinazolin-4-yl)amino]propyl]piperazin-1-yl}sulfonyl)-4-methyl-1,3-thiazol-2-yl]carbamate] |
| 10 to 100 | COC(=O)Nc1nc(C)c(S(=O)(=O)N2CCN(C[C@H](C)Nc3nc(C)nc4c(C(F)(F)F)cccc34)CC2)s1 [Example 2, methyl N-[4-methyl-5-({4-[(2S)-2-{[2-methyl-8-(trifluoromethyl)quinazolin-4-yl]amino}propyl]piperazin-1-yl}sulfonyl)-1,3-thiazol-2-yl]carbamate] |
| 10 to 100 | COC(=O)Nc1nc(C)c(S(=O)(=O)N2CCN(C[C@H](C)Nc3ncnc4c(OC(F)(F)F)cccc34)CC2)s1 [Example 3, Methyl N-[4-methyl-5-({4-[(2S)-2-{[8-(trifluoromethoxy)quinazolin-4-yl]amino}propyl]piperazin-1-yl}sulfonyl)-1,3-thiazol-2-yl]carbamate] |
| 10 to 100 | Cc1noc(-c2ccc(S(=O)(=O)N3CCN(C[C@H](C)Nc4ncnc5c(OC(F)F)cccc45)CC3)s2)c1C [Example 4, 8-(difluoromethoxy)-N-[(2S)-1-(4-{[5-(3,4-dimethyl-1,2-oxazol-5-yl)thiophen-2-yl]sulfonyl}piperazin-1-yl)propan-2-yl]quinazolin-4-amine] |
| < 1000 | C[C@@H](CN1CCN(S(=O)(=O)c2ccc(Cl)c(Cl)c2)CC1)Nc1ncnc2c(Cl)cccc12 [Example 6, 8-chloro-N-[(2S)-1-[4-(3,4-dichlorobenzenesulfonyl)piperazin-1-yl]propan-2-yl]quinazolin-4-amine] |
| < 1000 | COC(=O)Nc1nc(C)c(S(=O)(=O)N2CCN(C[C@H](C)Nc3nc(C(F)(F)F)nc4ccccc34)CC2)s1 [Example 11, methyl N-[4-methyl-5-({4-[(2S)-2-{[2-(trifluoromethyl)quinazolin-4-yl]amino}propyl]piperazin-1-yl}sulfonyl)-1,3-thiazol-2-yl]carbamate] |
| 10 to 100 | COC(=O)c1cccc2c(N[C@@H](C)CN3CCN(S(=O)(=O)c4cnc(-c5ccccc5)s4)CC3)ncnc12 [Example 12, methyl 4-{[(2S)-1-{4-[(2-phenyl-1,3-thiazol-5-yl)sulfonyl]piperazin-1-yl}propan-2-yl]amino}quinazoline-8-carboxylate] |
| 10 to 100 | CC(=O)Nc1ncc(S(=O)(=O)N2CCN(C[C@H](C)Nc3nc(C)nc4c(C(F)(F)F)cccc34)CC2)s1 [Example 13, N-[5-({4-[(2S)-2-{[2-methyl-8-(trifluoromethyl)quinazolin-4-yl]amino}propyl]piperazin-1-yl}sulfonyl)-1,3-thiazol-2-yl]acetamide] |
| < 1000 | COC(=O)Nc1nc(C)c(S(=O)(=O)N2CCN(C[C@H](C)Nc3nc(C4CC4)nc4ccccc34)CC2)s1 [Example 15, methyl N-[5-({4-[(2S)-2-[(2-cyclopropylquinazolin-4-yl)amino]propyl]piperazin-1-yl}sulfonyl)-4-methyl-1,3-thiazol-2-yl]carbamate] |
| 10 to 100 | COC(=O)c1cccc2c(N[C@@H](C)CN3CCN(S(=O)(=O)c4ccc(-c5ccno5)s4)CC3)ncnc12 [Example 16, methyl 4-{[(2S)-1-(4-{[5-(1,2-oxazol-5-yl)thiophen-2-yl]sulfonyl}piperazin-1-yl)propan-2-yl]amino}quinazoline-8-carboxylate] |
| 10 to 100 | COC(=O)Nc1nc(C)c(S(=O)(=O)N2CCN(C[C@H](C)Nc3ncnc4c(C(=O)OC)cccc34)CC2)s1 [Example 17, methyl 4-{[(2S)-1-[4-({2-[(methoxycarbonyl)amino]-4-methyl-1,3-thiazol-5-yl}sulfonyl)piperazin-1-yl]propan-2-yl]amino}quinazoline-8-carboxylate] |
| 10 to 100 | COC(=O)Nc1nc(C)c(S(=O)(=O)N2CCN(C[C@H](C)Nc3nc(C4CC4)nc4c(C)cccc34)CC2)s1 [Example 18, methyl N-[5-({4-[(2S)-2-[(2-cyclopropyl-8-methylquinazolin-4-yl)amino]propyl]piperazin-1-yl}sulfonyl)-4-methyl-1,3-thiazol-2-yl]carbamate] |
| < 1000 | CC(=O)Nc1ncc(S(=O)(=O)N2CCN(C[C@H](C)Nc3nc(C4CC4)nc4c(C)cccc34)CC2)s1 [Example 19, N-[5-({4-[(2S)-2-[(2-cyclopropyl-8-methylquinazolin-4-yl)amino]propyl]piperazin-1-yl}sulfonyl)-1,3-thiazol-2-yl]acetamide] |
| 10 to 100 | COC(=O)c1cccc2c(N[C@@H](C)CN3CCN(S(=O)(=O)c4cnc(NC(C)=O)s4)CC3)ncnc12 [Example 20, methyl 4-{[(2S)-1-{4-[(2-acetamido-1,3-thiazol-5-yl)sulfonyl]piperazin-1-yl}propan-2-yl]amino}quinazoline-8-carboxylate] |
| < 1000 | COCC(=O)Nc1ncc(S(=O)(=O)N2CCN(C[C@H](C)Nc3ncnc4c(C(F)(F)F)cccc34)CC2)s1 [Example 24, 2-methoxy-N-[5-({4-[(2S)-2-{[8-(trifluoromethyl)quinazolin-4-yl]amino}propyl]piperazin-1-yl}sulfonyl)-1,3-thiazol-2-yl]acetamide] |
| < 1000 | COCC(=O)Nc1nc(C)c(S(=O)(=O)N2CCN(C[C@H](C)Nc3ncnc4c(C(F)(F)F)cccc34)CC2)s1 [Example 25, 2-methoxy-N-[4-methyl-5-({4-[(2S)-2-{[8-(trifluoromethyl)quinazolin-4-yl]amino}propyl]piperazin-1-yl}sulfonyl)-1,3-thiazol-2-yl]acetamide] |
